Data: patent US20260217763A1, “Novel Peptide and Use Thereof” (Zincure Corp., priority 2022, published 2026)
Square brackets hold non-standard residues; d marks the D form. Ends that are not written are not given here. Peptide text beside a SMILES is read from it.

Legend:
[1] = In vitro plasma stability assay; type: in vitro ADME, ICR mice; details: 10 μM peptide, 37° C.; for stability in plasma over time: mouse plasma, 0 to 90 min, LC-MS
Method: FIG. 1 is a graph showing the results of measuring quantitative changes of alloferon L-type and alloferon D-type peptides by mass spectrometry to investigate their degradation in plasma from mice, where 10 µM of each alloferon peptide was treated in isolated plasma and were incubated at 37° C. for 0, 10, 30, 60, and 90 min.
As the present inventors believed that the mechanism of action of alloferon peptides is through endocytosis via multi-ligand receptors rather than physiological activity and that zinc-binding capacity is an important mechanism, they investigated the blood stability of the D-type alloferon of Example 1-2 in which all amino acids except glycine have been replaced with D-type amino acids and the L-type alloferon of Example 1-1. An in vitro plasma stability assay was performed to compare the stability of the L-type peptide and the D-type peptide of alloferon in the plasma of mice. For this purpose, 500 to 600 μl of blood was obtained from ICR mice by orbital blood sampling, which was subsequently centrifuged at 2000×g for 20 min at 4° C. using a centrifuge, and the supernatant was collected to obtain plasma. After adding 10 μM of the alloferon L-type and D-type peptides to 100 μl of the plasma, the plasma was incubated at 37° C. for 0, 5, 10, 30, 60, and 90 min. Then, 500 μl of cold methanol was added to precipitate the protein, and the protein was lyophilized and subjected to liquid chromatography and protein mass spectrometry.

[2] = tested on: GFP-mHttQ74 aggregates in HEK293T cell line; experiment: Mutant huntingtin protein aggregates after overexpression, Western blot; type: cell-based; details: peptide 30 μM with 100 nM bafilomycin A1, 18 h, HEK293T; FIG. 6
Method: (§1) FIG. 6 is a result of Western blot analysis of the level of mutant huntingtin protein expression in protein samples obtained 18 h after treatment of HEK293T cells transfected to express mutant huntingtin protein with 100 nM bafilomycin A1 alone or in combination with 30 μM of some variant alloferon peptides according to one embodiment of the present invention, for investigating the degradation of mutant huntingtin protein aggregates by treatment with some variant alloferon peptides (DALS1, DAL-VS_V(−Q), DAL1, and DALV2) according to one embodiment of the present invention.
(§2) The present inventors then investigated whether some of the variant peptides (DALS1, DALVS_V, DAL1, DALV2) comprising the amino acid sequences designated as SEQ ID NO: 3 through 16 could resolve SOD1 aggregates that formed after transient transfection of SOD1 protein into the 293T cell line. To this end, EGFP-SOD1 G93A DNA was transiently transfected into the HEK293T cell line using Lipofectamine 2000. After transfection, the cell lines were incubated in a cell culture machine at 37° C. and 5% CO2 for 30 h, and the culture medium was replaced with Minimum Essential Medium (MEM, Gibco, USA). Subsequently, the cells were pretreated with 100 nM bafilomycin for 30 min, which were then treated with μM variant alloferon peptide and incubated for 18 h. […] Then, it was subjected to protein quantification using BCA protein assay kit (Pierce Biotechnology, USA), and centrifuged at 17,000×g for 20 min, where the supernant was discarded and only the cell debris was taken to obtain protein. Subsequently, 5× sample buffer (300 mM Tris, pH 6.8, 10% SDS, 50% Glycerol, 0.1% BPB, 2.5% Mercaptoethanol, 100 mM DTT) was mixed with the quantified sample, denatured at 95° C. for 5 min, and prepared for analysis. […] Protein signals were detected using enhanced chemiluminescence (INTRON Biotechnology, South Korea) and a bio-imaging system (MF-Chemibis, Shimadzu Scientific Korea Corporation, South Korea). […]

[3] = tested on: EGFP-α-synuclein A53T aggregates in HEK293T cell line; experiment: α-synuclein protein aggregates after overexpression, Western blot; type: cell-based; details: peptide with 100 nM bafilomycin A1, 18 h, HEK293T; FIG. 5
Method: as §1, with “FIG. 5” for “FIG. 6”, “of α-synuclein” for “of mutant huntingtin”, “express α-synuclein” for “express mutant huntingtin protein”, “30 µM” for “30 μM”
as §2

[4] = tested on: H4 cell lines (GL-H4) expressing GFP-linked LC3; experiment: Analysis of autophagic flow blocked by bafilomycin A-1 (LC3-GFP spots); type: cell-based; details: peptide 20 μM with Baf A1 100 nM, GL-H4 cells; FIGS. 2E and 2F
Method: FIGS. 2A to 2C are series of fluorescence micrographs of LC3-GFP spots 12 h after treating H4 cell line (GL-H4) that stably overexpresses GFP-LC3 protein with various variant alloferon peptides according to one embodiment of the present invention in combination with bafilomycin at a concentration of 20 μM, showing that autophagic flux blocked by bafilomycin A-1 is restored by the variant alloferon peptides according to one embodiment of the present invention. FIGS. 2D to 2F are graphs showing quantification of the fluorescence intensity of LC3-GFP spots 12 h after treatment of the GL-H4 cell line with the variant alloferon peptides according to one embodiment of the present invention in combination with bafilomycin at a concentration of 20 μM.
H4 cell line (GL-H4) and HEK293T cell line permanently transfected with GFP-LC3 plasmid were used in the present invention. The cell culture medium was Minimum Essential Medium (MEM, WellGene) supplemented with 10% fetal bovine serum (Hyclone, USA) and antibiotic and antifungal mixture (WellGene, Korea) and cultured in a cell culture machine at 37° C. and 5% CO2.
To investigate the effect of peptides comprising the amino acid sequences designated as SEQ ID NO: 3 to 16 on autophagic flow, the present inventors treated H4 cell lines (GL-H4) expressing GFP-linked LC3 with the peptides (20 μM) and/or the autophagic inhibitor Bafilomycin A-1 (Baf A1, 100 nM) to inhibit autophagy, and then the effect of the variant alloferon peptides according to one embodiment of the present invention was investigated by fluorescence microscopy analysis.

[5] = tested on: EGFP-SOD1 G93A aggregates in HEK293T cell line; experiment: SOD1 protein aggregates after SOD1 overexpression, Western blot; type: cell-based; details: peptide with 100 nM bafilomycin, 18 h, HEK293T; FIG. 3B
Method: as §1, with “FIG. 3A” for “FIG. 6”, “of SOD1” for “of mutant huntingtin”, “express SOD1” for “express mutant huntingtin protein”, “invention. FIG. 3B is a graph representing the results of quantifying relative expression of the SOD1 protein. In FIG. 3B, * indicates a significant difference compared to the treatment with bafilomycin alone (* p<0.05).” for “invention.”
The present inventors then investigated whether some of the variant peptides (DALS1, DALVS_V, DAL1, DALV2) comprising the amino acid sequences designated as SEQ ID NO: 3 through 16 could resolve SOD1 aggregates that formed after transient transfection of SOD1 protein into the 293T cell line. To this end, EGFP-SOD1 G93A DNA was transiently transfected into the HEK293T cell line using Lipofectamine 2000. After transfection, the cell lines were incubated in a cell culture machine at 37° C. and 5% CO2 for 30 h, and the culture medium was replaced with Minimum Essential Medium (MEM, Gibco, USA). Subsequently, the cells were pretreated with 100 nM bafilomycin for 30 min, which were then treated with μM variant alloferon peptide and incubated for 18 h. After that, proteinase inhibitors and phosphatase inhibitors (2 μg/ml aprotinin, 2 μg/ml leupeptin, 1 μg/ml pepstatin A, 1 mM phenyl-methylsulfonyl fluoride (PMSF), 1 mM Na3 VO4, 5 mM NaF and 10 mM Na4P2O7) were put into a 6-well culture dish at 200 μl per well to lyse the cells. The obtained cell lysate was first left at 30 min for 4° C. Then, it was subjected to protein quantification using BCA protein assay kit (Pierce Biotechnology, USA), and centrifuged at 17,000×g for 20 min, where the supernant was discarded and only the cell debris was taken to obtain protein. Subsequently, 5× sample buffer (300 mM Tris, pH 6.8, 10% SDS, 50% Glycerol, 0.1% BPB, 2.5% Mercaptoethanol, 100 mM DTT) was mixed with the quantified sample, denatured at 95° C. for 5 min, and prepared for analysis. Then, electrophoresis was performed using 8% to 15% SDS-polyacrylamide gel, and the proteins separated by their sizes were transferred to polyvinylidene difluoride (PVDF) membranes (Millipore, USA). The protein-transferred membranes were then blocked with 3% skim milk powder in TBST for 1 h. […] Protein signals were detected using enhanced chemiluminescence (INTRON Biotechnology, South Korea) and a bio-imaging system (MF-Chemibis, Shimadzu Scientific Korea Corporation, South Korea).

[6] = tested on: P-Tau S214, P-Tau T205, unphosphorylated tau, p62, LC3, β-amyloid (APP); experiment: Western blot of aggregate-forming proteins in cortex and hippocampus; type: in vivo; details: 5×FAD mice
Source text: The present inventors conducted a western blot analysis to investigate the expression of pathogenic aggregate-forming proteins in brain tissue, such as tau protein, p62, and LC3, other than β-amyloid from the results of Experimental examples 8-2 and 8-3 above.
Specifically, cortical and hippocampal tissues were obtained from experimental animals sacrificed after the behavioral experiments, and the tissues were lysed and subjected to Western blot analysis using antibodies that specifically bind to phosphorylated tau S214 (P-Tau S214), phosphorylated tau T205 (P-Tau T205), unphosphorylated tau, p62, LC3, and β-amyloid (APP), respectively.

CC(C)[C@@H](NC(=O)CNC(=O)[C@H](N)Cc1c[nH]cn1)C(=O)N[C@H](CO)C(=O)NCC(=O)N[C@H](Cc1c[nH]cn1)C(=O)NCC(=O)N[C@H](CCC(N)=O)C(=O)N[C@H](Cc1c[nH]cn1)C(=O)NCC(=O)N[C@@H](C(=O)N[C@H](Cc1c[nH]cn1)C(=O)NCC(=O)O)C(C)C [DAL1] (H-[dH]G[dV][dS]G[dH]G[dQ][dH]G[dV][dH]G-OH; N-terminus and C-terminus assumed)
stability in plasma over time [1]: remained stable over time without degradation

DALH1: variant alloferon peptide, SEQ ID NO: 8, HGvsGhGqhGvhG (capital L-type, lowercase D-type) (HG[dV][dS]G[dH]G[dQ][dH]G[dV][dH]G)
mutant huntingtin protein aggregate dissociating ability compared to DAL1 [2]: better protein aggregate dissociating ability

DALQ1: variant alloferon peptide, SEQ ID NO: 10, hGvsGhGQhGvhG (capital L-type, lowercase D-type) ([dH]G[dV][dS]G[dH]GQ[dH]G[dV][dH]G)
α-synuclein protein aggregate dissociating ability compared to DAL-1 [3]: better protein aggregate dissociating ability

DALS1: variant alloferon peptide, SEQ ID NO: 5, hGvSGhGqhGvhG (capital L-type, lowercase D-type) ([dH]G[dV]SG[dH]G[dQ][dH]G[dV][dH]G)
autophagic scavenging activity compared to D-type alloferon peptide (DAL1) [4]: superior autophagic scavenging activity | SOD1 protein aggregate dissociating ability compared to DAL1 [5]: better protein aggregate dissociating ability

DALV1: variant alloferon peptide, SEQ ID NO: 7, hGVsGhGqhGvhG (capital L-type, lowercase D-type) ([dH]GV[dS]G[dH]G[dQ][dH]G[dV][dH]G)
autophagic scavenging activity compared to D-type alloferon peptide (DAL1) [4]: superior autophagic scavenging activity

DALV2: variant alloferon peptide, SEQ ID NO: 4, hGvsGhGqhGVhG (capital L-type, lowercase D-type) ([dH]G[dV][dS]G[dH]G[dQ][dH]GV[dH]G)
autophagic scavenging activity compared to D-type alloferon peptide (DAL1) [4]: superior autophagic scavenging activity | amount of β-amyloid ([6]; Western blot of hippocampal sections): significantly reduced | expression of aggregate-forming proteins ([6]; cortex and hippocampus, 20 mg/kg IP, 25 weeks): significantly lower expression | protein aggregate dissociating ability compared to DAL1 ([6]; cortical Western blot analysis): better protein aggregate dissociating ability | SOD1 protein aggregate dissociating ability compared to DAL1 [5]: better protein aggregate dissociating ability | mutant huntingtin protein aggregate dissociating ability compared to DAL1 [2]: better protein aggregate dissociating ability | α-synuclein protein aggregate dissociating ability compared to DAL-1 [3]: better protein aggregate dissociating ability

DALVS: variant alloferon peptide, SEQ ID NO: 3, hGVSGhGqhGvhG (capital L-type, lowercase D-type) ([dH]GVSG[dH]G[dQ][dH]G[dV][dH]G)
autophagic scavenging activity compared to D-type alloferon peptide (DAL1) [4]: superior autophagic scavenging activity

DALVSQV
autophagic scavenging activity compared to D-type alloferon peptide (DAL1) [4]: superior autophagic scavenging activity

DALVS_V: variant alloferon peptide with glutamine removed, SEQ ID NO: 14, hGVSGhGhGVhG (capital L-type, lowercase D-type) ([dH]GVSG[dH]G[dH]GV[dH]G)
autophagic scavenging activity compared to D-type alloferon peptide (DAL1) [4]: superior autophagic scavenging activity | SOD1 protein aggregate dissociating ability compared to DAL1 [5]: better protein aggregate dissociating ability

HGVSGHGQHGVHG [LAL]
half-life ([1]; FIG. 1, isolated mouse plasma, read-out: half-life (T1/2)): 51.8 min | stability in plasma over time [1]: degraded early in plasma
